Where two headings read alike, the source gives them in different places.
Tests used:
CCK2R [1] = target: T1, CCK2R (Mus musculus, UniProt P56481); assay: Peptide blocking experiment (co-injection of blocking dose of PPF11N) in the ex vivo biodistribution study; parameters: species or system CD1 mice; conditions: male and female mice, 60 min post-injection, PPF11N 40 μg per mouse
T1 construct: from tissue; host or cells: organs of naive CD1 mice (stomach and others), in vivo injection with ex vivo gamma counting
T1 sequence (P56481 1-453): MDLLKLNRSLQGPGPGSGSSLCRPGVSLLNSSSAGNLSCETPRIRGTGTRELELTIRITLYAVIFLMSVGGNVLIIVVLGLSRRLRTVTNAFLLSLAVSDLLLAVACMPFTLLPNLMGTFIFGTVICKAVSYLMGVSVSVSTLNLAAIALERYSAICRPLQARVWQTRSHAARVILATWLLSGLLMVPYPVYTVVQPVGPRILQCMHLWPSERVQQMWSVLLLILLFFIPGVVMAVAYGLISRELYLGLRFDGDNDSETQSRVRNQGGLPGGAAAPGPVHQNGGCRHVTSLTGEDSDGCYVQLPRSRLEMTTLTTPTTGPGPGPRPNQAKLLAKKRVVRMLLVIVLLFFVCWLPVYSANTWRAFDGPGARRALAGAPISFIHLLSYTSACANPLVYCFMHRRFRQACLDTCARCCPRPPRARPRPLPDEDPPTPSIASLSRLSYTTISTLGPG
Protocol: (§1) Ex vivo biodistribution study. Female (FIG. 1A) and male (FIG. 1B) naïve adult CD1 mice (immunocompetent) were injected with [^68Ga]Ga-PPF11N ((0.19±0.04) MBq, 0.04 μg, 1.3 μg/kg). Mice were sacrificed at 5, 15, 30, 60, 120 and 240 min post-injection (N=4 each). A control group of mice of each sex was co-injected with a blocking dose of PPF11N peptide (40 μg, 1.3 mg/kg) and sacrificed at 60 min post-injection. Organs (blood, bone, brain, colon, gonad, kidney, liver, lung, muscle, pancreas, stomach) were weighted and assessed for activity concentration over time. Ex vivo biodistribution in all resected tissues was computed as the percentage of injected dose per gram of tissue (% ID/g).
(§2) Immunocompetent CD1 mice (N=28 males and N=28 females on study, N=3 males and N=3 females spare; males 9 weeks old, females 5 weeks old at delivery) were acclimatized for 7 days, inspected daily and weighed on the day of injection. For each sex, mice were randomly allocated to 7 groups (N=4 mice per group) and each group was injected (bolus i.v. route into a laterial tail vein) with [^68Ga]Ga-PPF11N peptide ((0.19±0.04) MBq in 0.15 mL; (0.039±0.02) μg peptide in non-blocked groups. Following radiolabeling, each product batch was assessed by iTLC and HPLC to ensure the material met the target criteria. For the blocked group, 38±1 μg of peptide was injected. At 5 min, 15 min, 30 min, 1 h, 2 h and 4 h post-injection mice (n=4 per time point for each sex) were sacrificed by cervical dislocation and tissues (blood, bone, brain, colon, gonad, kidney, liver, lung, muscle, pancreas, stomach) were resected, weighed and the radioactivity was counted with a gamma-counter along with calibration standards (dilution series in triplicate). The study design is depicted in the table below.
(§3) The activity of each collected tissue was measured in units of counts per min (CPM). […] Measured values were decay corrected and adjusted to account for background radiation

CCK2R [2] = tested on: T2, CCK2R; assay: as above; parameters: species or system CD1 mice; conditions: CD1, stomach, iv, total radioactivity, 60 min post-injection, co-injected PPF11N 40 μg per mouse (1.3 mg/kg), read-out: Concentration in the stomach with peptide blocking dose
T2 construct: from tissue; host or cells: organs of naive CD1 mice (stomach and others), in vivo injection with ex vivo gamma counting
Protocol: as §1, §2, §3

[3] = Ex vivo biodistribution study in naïve adult CD1 mice; conditions: for tissue uptake at 1 h: CD1, mouse, iv, 0.04 ug, total radioactivity; for tissue uptake at 1 h / Retention in stomach: 60 min post-injection
Protocol: as §1, §2
The activity of each collected tissue was measured in units of counts per min (CPM). Triplicate aliquots of serial dilutions of the radiotracer were also assayed in the gamma counter in order to calculate a conversion factor to units of activity (% ID/g). Measured values were decay corrected and adjusted to account for background radiation

For `CCCC[C@H](NC(=O)[C@H](Cc1c[nH]c2ccccc12)NC(=O)CNC(=O)[C@H](Cc1ccc(O)cc1)NC(=O)[C@H](C)NC(=O)[C@@H](CCC(=O)O)NC(=O)[C@@H](CCC(=O)O)NC(=O)[C@@H](CCC(=O)O)NC(=O)[C@@H](CCC(=O)O)NC(=O)[C@@H](CCC(=O)O)NC(=O)[C@@H](CCC(=O)O)NC(=O)CN1CCN(CC(=O)O)CCN(CC(=O)O)CCN(CC(=O)O)CC1)C(=O)N[C@@H](CC(=O)O)C(=O)N[C@@H](Cc1ccccc1)C(N)=O` [^68Ga-PPF11N, ^68Ga-Y-DGlu-DGlu-DGlu-DGlu-DGlu-DGlu-Ala-Tyr-Gly-Trp-Nle-Asp-Phe-NH2, metal not drawn], the “Effect of peptide blocking dose on kidney exposure” value (CCK2R [1]) was “unable to reduce kidney exposure”, the tissue uptake at 1 h (CCK2R [2]; female mice) was 0.19 ± 0.02 %ID/g and the tissue uptake at 1 h (CCK2R [2]; male mice) was 0.32 ± 0.07 %ID/g. It also gave a tissue uptake at 1 h ([3]; blood, female mice, i.v., 0.04 μg peptide, read-out: Blood concentration) of 0.4 ± 0.12 %ID/g, a tissue uptake at 1 h ([3]; blood, male mice, i.v., 0.04 μg peptide, read-out: Blood concentration) of 0.46 ± 0.35 %ID/g and a tissue uptake at 1 h ([3]; kidney, female mice, read-out: Retention in kidneys) of 2.98 ± 0.53 %ID/g. The tissue uptake at 1 h ([3]; kidney, male mice, read-out: Retention in kidneys) was 3.38 ± 0.67 %ID/g, the tissue uptake at 1 h ([3]; muscle, female mice, read-out: Activity concentration in muscle) was 0.16 ± 0.09 %ID/g and the tissue uptake at 1 h ([3]; muscle, male mice, read-out: Activity concentration in muscle) was 0.1 ± 0.03 %ID/g. For the same compound, the tissue uptake at 1 h ([3]; stomach, female mice, read-out: Retention in stomach) was 1.71 ± 0.56 %ID/g, the tissue uptake at 1 h ([3]; stomach, male mice, read-out: Retention in stomach) was 1.93 ± 0.18 %ID/g and the Retention in stomach ([3]; female mice) was 1.71±0.56 % ID/g. For the same compound, the Clearance from organs ([3]; male and female mice, 5 to 240 min post-injection) was “rapid clearance from all organs except for kidneys and stomach” and the Retention in stomach ([3]; male mice) was 1.93±0.18 % ID/g.
